# Experimental data published in patent publication US10807992B2, “Single enantiomer antiparasitic compounds” (priority 2017, dated 2020).
# Read-outs that look alike come from different tables or passages of the source.
# Experiment: Dog PK study of C1 (S) enantiomer, single oral dose, plasma and whole blood by chiral LC-MS/MS
# Format: in vivo, beagle dogs
# Conditions: for AUC(0-t): read-out: NCA AUC0-last; for AUC(0-inf): read-out: NCA AUC0-∞
# Procedure: This study assessed the in vivo pharmacokinetic (PK) behavior of a single oral dose of the C1 (S) enantiomer in beagle dogs (Charles River study# 20104466). Solutions of C1 (S) enantiomer were dosed by oral gavage (10mg/kg) to a group of dogs (n=3). Blood samples were collected pre-dose and at 0.25, 0.5, 1, 2, 4, and 8 hours following dosing on Day 1. Blood samples were also collected on Days1, 2, 3, 5, 7, 10, 14, 17, 21, 25, 28, 32, 35, 39, 43, and 45. A portion of each whole blood sample was processed to plasma. Test article concentrations in plasma and whole blood were determined using liquid chromatography tandem mass spectrometry (LC-MS/MS).
# Calibration curves were constructed by spiking racemic 1-[6-[5-(3,5-dichloro-4-fluoro-phenyl)-5-(trifluoromethyl)-4H-isothiazol-3-yl]spiro[1H-isobenzofuran-3,3′-azetidine]-1′-yl]-3,3,3-trifluoro-propan-1-one into aliquots of blank K2EDTA beagle plasma or whole blood (Bioreclamation, Westbury, N.Y.) at the following nominal concentrations: 5, 10, 20, 50, 100, 200, 500, 1000, 2000, 5000, and 10000 ng/mL. Quality control samples (QCs) were prepared in the same manner at the following concentrations: 15, 30, 150, 800, 1600, 4000, and 8000 ng/mL.
# Samples (double blanks, blank+IS, blank+drug, standards, QC samples, and study samples) were extracted using a protein precipitation procedure. A 50 μL aliquot of plasma or blood was transferred into a deep well 96-well plate. To the sample aliquot, 250 μL of an internal standard (IS) solution for plasma or 300 μL for blood was added. The internal standard solution contained Afoxolaner at 50 ng/mL in methanol. For double blanks and blank+drug, neat methanol instead of IS was added. The 96-well plate was capped, shaken for ten minutes, and centrifuged at 5000 relative centrifugal force (RCF) for 10 minutes at 15° C. A 150-200 μL aliquot of the resulting supernatant of each sample was transferred to a clean, 96-well microtiter plate. The microtiter plate was capped and subjected to LC-MS/MS analysis.
# The LC-MS/MS system consisted of a Leap autosampler, an Agilent 1100 series liquid chromatography pump, and a SciexAPI4000 mass spectrometer operated in triple quadrupole mode. A ChiralPak IA column (4.6×150mm, 5μm particle, Supplier Daicel PN 80324)at room temperature was used with water as mobile phase A and neat acetonitrile as mobile phase B. The LC gradient, MS parameters, and gas parameters are shown in the tables 2-4, respectively.
# The mass spectrometer (MS) was operated in negative Turbo IonSpray™ mode with Multiple Reaction Monitoring (MRM).
# Following LC-MS/MS analysis, peak area ratios were calculated (analyte peak area divided by internal standard peak area). Standard curves were created by generating least squares fitting plots of peak area ratio versus nominal concentration. Sample concentrations were calculated from the results of the least squares fits.
# Cmax and Tmax are the observed maximum drug concentration and the time at which the maximum concentration occurs, respectively. Area under the curve (AUC) was calculated using the linear trapezoid method. To calculate half-lives (t1/2), a least squares regression was performed on a log concentration (C) versus time (t) plot (semi-log plot) to obtain the slope, k. The t1/2 is equal to 0.693/k. The t1/2 was calculated using data points in the elimination phase. For oral PK, Cl/F=Dose/AUC.
# In this report, PK calculations were normalized to the measured dose solution concentrations. Note that in all figures and tables below, the nominal dose is listed.
# [1] = dog, plasma, Beagle, oral 10 mg/kg, read-out: Plasma Concentration
# [2] = dog, whole blood, Beagle, oral 10 mg/kg, read-out: Blood Concentration
# [3] = dog, plasma, Beagle, oral gavage 10 mg/kg
# [4] = dog, whole blood, Beagle, oral gavage 10 mg/kg
# [5] = plasma, Beagle, oral gavage 10 mg/kg, 10 mg/kg
# [6] = same dose level, beagle vs. mongrels
compound,measurement,setting,value
"O=C(CC(F)(F)F)N1CC2(C1)OCc1cc(C3=NS[C@@](c4cc(Cl)c(F)c(Cl)c4)(C(F)(F)F)C3)ccc12 [C1 (S) enantiomer, (S)-1-[6-[5-(3,5-dichloro-4-fluoro-phenyl)-5-(trifluoromethyl)-4H-isothiazol-3-yl]spiro[1H-isobenzofuran-3,3′-azetidine]-1′-yl]-3,3,3-trifluoro-propan-1-one]",Blood Concentration,"1080 hr, Beagle, oral 10 mg/kg",BQL ^b
same,concentration in plasma relative to blood concentration,after 240 hours,about twice the blood concentration
same,concentrations in blood and plasma compared,at 48 hours,similar
same,average half-life compared with the racemate,beagle PK study vs. racemate oral efficacy studies in mongrels,shorter than that of the racemate
same,Tmax,"beagle, dog, plasma, po, 10 mg/kg, plasma, Beagle, oral gavage 10 mg/kg, read-out: Tmax",2 h
same,CL/F,"beagle, dog, plasma, po, 10 mg/kg, oral gavage 10 mg/kg",0.833 mL/min/kg
same,Tmax,"beagle, dog, whole blood, po, 10 mg/kg, whole blood, Beagle, oral gavage 10 mg/kg, read-out: Tmax",1.7 h
same,CL/F,"beagle, dog, whole blood, po, 10 mg/kg, oral gavage 10 mg/kg",1.12 mL/min/kg
same,bioconversion to the C1 (R) enantiomer in vivo,"chiral HPLC chromatograms of all study samples, dog",No bioconversion was observed
same,concentration at 1080 hr,"dog, in vivo, 1080 hr, Beagle, oral 10 mg/kg",15.7 ± 6.3 ng/mL
same,concentration at 0.25 hr,[1],291 ± 57 ng/mL
same,concentration at 0.5 hr,[1],1170 ± 250 ng/mL
same,concentration at 1 hr,[1],1920 ± 330 ng/mL
same,concentration at 2 hr,[1],2260 ± 170 ng/mL
same,concentration at 4 hr,[1],2010 ± 360 ng/mL
same,concentration at 8 hr,[1],1110 ± 70 ng/mL
same,concentration at 24 hr,[1],664 ± 112 ng/mL
same,concentration at 48 hr,[1],567 ± 95 ng/mL
same,concentration at 72 hr,[1],552 ± 65 ng/mL
same,concentration at 120 hr,[1],393 ± 67 ng/mL
same,concentration at 168 hr,[1],298 ± 39 ng/mL
same,concentration at 240 hr,[1],270 ± 19 ng/mL
same,concentration at 336 hr,[1],219 ± 24 ng/mL
same,concentration at 408 hr,[1],135 ± 12 ng/mL
same,concentration at 504 hr,[1],103 ± 15 ng/mL
same,concentration at 600 hr,[1],80.4 ± 11.3 ng/mL
same,concentration at 672 hr,[1],55.6 ± 12.2 ng/mL
same,concentration at 768 hr,[1],47 ± 11.9 ng/mL
same,concentration at 840 hr,[1],37.4 ± 8.2 ng/mL
same,concentration at 936 hr,[1],24.8 ± 6.4 ng/mL
same,concentration at 1032 hr,[1],18.8 ± 5.5 ng/mL
same,concentration at 0.25 hr,[2],412 ± 89 ng/mL
same,concentration at 0.5 hr,[2],1660 ± 380 ng/mL
same,concentration at 1 hr,[2],3210 ± 230 ng/mL
same,concentration at 2 hr,[2],3560 ± 570 ng/mL
same,concentration at 4 hr,[2],2990 ± 340 ng/mL
same,concentration at 8 hr,[2],1220 ± 170 ng/mL
same,concentration at 24 hr,[2],708 ± 162 ng/mL
same,concentration at 48 hr,[2],572 ± 128 ng/mL
same,concentration at 72 hr,[2],428 ± 71 ng/mL
same,concentration at 120 hr,[2],292 ± 56 ng/mL
same,concentration at 168 hr,[2],245 ± 47 ng/mL
same,concentration at 240 hr,[2],136 ± 20 ng/mL
same,concentration at 336 hr,[2],100 ± 6 ng/mL
same,concentration at 408 hr,[2],75.8 ± 11.2 ng/mL
same,concentration at 504 hr,[2],57.3 ± 8.5 ng/mL
same,concentration at 600 hr,[2],41.2 ± 3.7 ng/mL
same,concentration at 672 hr,[2],30.5 ± 5.1 ng/mL
same,concentration at 768 hr,[2],21.5 ± 4.2 ng/mL
same,concentration at 840 hr,[2],17.4 ± 4.8 ng/mL
same,concentration at 936 hr,[2],14.3 ± 3.4 ng/mL
same,concentration at 1032 hr,[2],13.8 ng/mL
same,half-life,[3],205 h
same,Cmax,"dog, plasma, Beagle, oral gavage 10 mg/kg, read-out: Cmax",2260 ng/mL
same,AUC(0-t),[3],191 µg·h/mL
same,AUC(0-inf),[3],196 µg·h/mL
same,half-life,[4],209 h
same,Cmax,"dog, whole blood, Beagle, oral gavage 10 mg/kg, read-out: Cmax",3650 ng/mL
same,AUC(0-t),[4],144 ± 11 µg·h/mL
same,AUC(0-inf),[4],148 µg·h/mL
same,blood concentrations compared with plasma concentrations,first few hours post-dose,significantly higher than the corresponding plasma concentrations
same,affinity to red blood cells (RBC),initial phase post-dose,higher initial affinity to red blood cells (RBC)
same,tlast,"plasma, Beagle, oral gavage 10 mg/kg",1080 h
same,Cl/F,[5],0.84 ± 0.0467 mL/min/kg
same,Cmax,[5],2260 ± 170 ng/mL
same,NCA AUC0-last,[5],191 ± 11 µg·h/mL
same,AUC compared with the racemate,[6],lower compared to those of the racemate
same,Cmax compared with the racemate,[6],lower compared to those of the racemate
same,Tmax,"whole blood, Beagle, oral gavage 10 mg/kg, 10 mg/kg",1.67 ± 0.58 h
